# Inconclusive results are not listed. Active and inactive are the calls of the source. The rule behind the calls is not given here.
# Tested on: S. typhimurium/E. coli reverse mutation, colony counts
# Experiment: Bacterial reverse mutation test (aka Ames test) summary data
# Summary of the method: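 S. typhimurium his⁻ strains (TA97–TA1538) and E. coli WP2 uvrA pKM101 trp⁻, dosed over a range with or without rat, hamster or mouse liver S9. Preincubated 20 min at 37° C (or plate incorporation), plated in agar, incubated usually two days. Revertant colonies counted against negative controls.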
row,Compound,outcome
1,CN(C)c1ccc(C2(c3ccc(N(C)C)cc3)OC(=O)c3cc(N(C)C)ccc32)cc1,inactive; negative
2,CNC(=O)ON=CC(C)(C)SC,inactive; negative
3,O=C1c2cccc(O)c2C(=O)c2c(O)cccc21,active; weakly positive
4,O=C(O)c1cc(O)c2c(c1)[C@H]([C@H]1c3cc(C(=O)O)cc(O)c3C(=O)c3c(O[C@@H]4O[C@H](CO)[C@@H](O)[C@H](O)[C@H]4O)cccc31)c1cccc(O[C@@H]3O[C@H](CO)[C@@H](O)[C@H](O)[C@H]3O)c1C2=O,inactive; negative
5,OCc1c[nH]c2ccccc12,active; positive
6,Cc1ccc(S(N)(=O)=O)cc1,inactive; negative
7,S=C=Nc1cccc2ccccc12,active; positive
8,CCCCCCCCCCCCCCCCCC(=O)O,inactive; negative
9,O=CC(=O)c1ccccc1,active; positive
10,NC(N)=S,inactive; negative
11,Cc1ccc(C(C)(C)O)cc1,inactive; negative
12,COc1ccc(N)cc1,active; positive
13,Cc1cccc(OP(=O)(Oc2cccc(C)c2)Oc2cccc(C)c2)c1,inactive; negative
14,CCCCCN,inactive; negative
15,CN(C)P(=O)(N(C)C)N(C)C,inactive; negative
16,C[C@@H]1Cc2c(Cl)cc(C(=O)N[C@@H](Cc3ccccc3)C(=O)O)c(O)c2C(=O)O1,inactive; negative
17,Nc1cc(S(=O)(=O)[O-])cc2cc(S(=O)(=O)[O-])c(N=Nc3ccc(-c4ccc(N=Nc5c(S(=O)(=O)[O-])cc6cc(S(=O)(=O)[O-])cc(N)c6c5[O-])c([O-])c4)cc3[O-])c([O-])c12.[Cu+2].[Cu+2].[Na+].[Na+].[Na+].[Na+],inactive; negative
18,CCCC[N+]1(C)CCCC1,inactive; negative
19,COCC1CCC(CO)CC1 (configuration not stated),inactive; negative
20,Clc1ccccc1,inactive; negative
21,COC(F)(F)C(Cl)Cl,inactive; negative
22,Clc1ccc(N=Nc2ccc(Cl)c(Cl)c2)cc1Cl,active; positive
23,COc1cc2c(c3oc(=O)c4c(c13)CCC4=O)[C@@H]1C=CO[C@@H]1O2,active; positive
24,CC(C)=CCCC(C)CCO (configuration not stated),inactive; negative
25,C=C(C)OC(C)=O,inactive; negative
26,CCC[CH2][Sn]([CH2]CCC)([O]C(C)=O)[O]C(C)=O,inactive; negative

row,Compound,outcome
1,NCCCN,inactive; negative
2,COc1ccc(C(=O)/C(Br)=C\C(=O)O)cc1,active; positive
3,Cc1cc2nc(N)sc2cc1C,active; positive
4,CC(O)CNCC(C)O (configuration not stated),inactive; negative
5,CC(=O)Nc1ccc(N)cc1,active; positive
6,COc1ccc(C=O)cc1OC,inactive; negative
7,Nc1ccc(N=Nc2ccccc2)cc1,active; positive
8,Cc1ccccc1N,active; positive
9,COc1cc(Cc2cnc(N)nc2N)cc(OC)c1OC,inactive; negative
10,CC1CC(=O)O1 (configuration not stated),active; positive
11,C=CC(=O)NC(C)(C)CC(C)=O,inactive; negative
12,O=c1[nH]cc(F)c(=O)[nH]1,inactive; negative
13,Oc1ccc2cc(SSc3ccc4cc(O)ccc4c3)ccc2c1,inactive; negative
14,Nc1ccccc1Cl,inactive; negative
15,CC(=O)OC1CC(C)OC(C)O1 (configuration not stated),active; positive
16,COc1cc([N+](=O)[O-])ccc1N=NC(C(C)=O)C(=O)Nc1ccccc1OC (configuration not stated),inactive; negative
17,CCCCOC(=O)c1ccccc1C(=O)OC1CCCCC1,inactive; negative
18,Nc1cc([N+](=O)[O-])cc(S(=O)(=O)O)c1O,inactive; negative
19,Cc1ccc(C(=O)O)cc1[N+](=O)[O-],active; positive
20,Nc1ccc(Cl)cc1Cl,active; weakly positive
21,CCSCCC(N)C(=O)O (configuration not stated),inactive; negative
22,CC(C)OCC1CO1 (configuration not stated),active; positive
23,OCC1CCC(CO)CC1 (configuration not stated),inactive; negative
24,ClCBr,active; positive
25,CCN(CC)CCNc1ccc(CO)c2sc3ccccc3c(=O)c12,active; positive
26,C[C@]12C=CC(=O)C=C1CC[C@@H]1[C@@H]2C(=O)C[C@@]2(C)[C@H]1CC[C@]2(O)C(=O)CO,active; positive

row,Compound,outcome
1,Clc1cccc2ccccc12,active; weakly positive
2,O=[N+]([O-])c1cccc2c([N+](=O)[O-])cccc12,active; positive
3,COC(=O)C1CCC(C(=O)OC)CC1 (configuration not stated),active; positive
4,N#CSCSC#N,inactive; negative
5,O=C(O)CC(C(=O)O)C(CC(=O)O)C(=O)O (configuration not stated),active; positive
6,BrC(Br)C(Br)(Br)Br,inactive; negative
7,Cc1cccc(C)c1N,active; weakly positive
8,C=C(Cl)C(=O)OC,active; positive
9,Cc1cccc2cccnc12,active; positive
10,Oc1cccc(O)c1,inactive; negative
11,O=C(O)c1ccccc1C(=O)O,inactive; negative
12,Cc1cc(-c2ccc(N=Nc3cc(S(=O)(=O)O)c4ccccc4c3N)c(C)c2)ccc1N=Nc1cc(S(=O)(=O)O)c2ccccc2c1N,inactive; negative
13,CCC(C)(C)C,inactive; negative
14,CCC[N+](=O)[O-],inactive; negative
15,CC1=CC(=C(c2ccc(N)cc2)c2ccc(N)cc2)C=CC1=N,active; positive
16,Cc1ccccc1C(OCCN(C)C)c1ccccc1 (configuration not stated),inactive; negative
17,NCCNCCO,active; weakly positive
18,CCCCOCCCC,inactive; negative
19,N#CSCSc1nc2ccccc2s1,active; positive
20,ClC(Cl)(Cl)C1CO1 (configuration not stated),active; positive
21,CC(C)(O)C#N,inactive; negative
22,C[Si](C)(C)Cl,active; weakly positive
23,O=C/C=C/c1ccccc1,active; weakly positive
24,CCN(N=O)C(N)=O,active; positive
25,CCOP(=O)(NC(C)C)Oc1ccc(SC)c(C)c1 (configuration not stated),inactive; negative
26,O=C(O)COc1cc(Cl)c(Cl)cc1Cl,inactive; negative

row,Compound,outcome
1,O=Nc1ccc(O)cc1,active; weakly positive
2,CC[C@H](C)COC(=O)C=Cc1ccc(N=Cc2ccc(OC)cc2)cc1,active; positive
3,CCCC(C)=O,inactive; negative
4,O=[N+]([O-])c1c(Cl)c(Cl)cc(Cl)c1Cl,active; weakly positive
5,COc1ccccc1C=CC=O,active; weakly positive
6,CCCCCCCCCCCCCC(=O)O,inactive; negative
7,CC(C)CN(CC(C)C)CC(C)C,inactive; negative
8,CN(C)c1ccc(N=O)cc1,active; positive
9,CCCCC(C=O)CC (configuration not stated),inactive; negative
10,CN(C)[C@@H]1C(=O)C(C(N)=O)=C(O)[C@@]2(O)C(=O)C3=C(O)c4c(O)cccc4[C@@](C)(O)[C@H]3[C@H](O)[C@@H]12,inactive; negative
11,CC(C)(C)C(=O)C1C(=O)c2ccccc2C1=O,inactive; negative
12,CC(=O)Nc1ccc(C)cc1,active; weakly positive
13,O=[N+]([O-])c1ccc(O)c([N+](=O)[O-])c1,inactive; negative
14,CS(=O)(=O)c1ccc(O)c(N)c1,inactive; negative
15,OCCOc1ccccc1,inactive; negative
16,Cc1ccc2ccccc2c1,inactive; negative
17,CC1CCCCC1CO (configuration not stated),inactive; negative
18,ClC(Cl)C(Cl)(Cl)Cl,inactive; negative
19,CCCCN,inactive; negative
20,C=CC(C)(O)CCC=C(C)C (configuration not stated),inactive; negative
21,CCN(Cc1cccc(S(=O)(=O)[O-])c1)c1ccc(C(=C2C=CC(=[N+](C)C)C=C2)c2ccc(N(CC)Cc3cccc(S(=O)(=O)O)c3)cc2)cc1,active; positive
22,O=C1NC(=O)C(O)(O)C(=O)N1,inactive; negative
23,OCC1CO1 (configuration not stated),active; positive
24,[O]=[V]([OH])([OH])[OH],inactive; negative
25,CCCCC(CC)COCC1CO1 (configuration not stated),active; positive
26,Oc1c(Cl)cc(Cl)c(Cl)c1Cc1c(O)c(Cl)cc(Cl)c1Cl,inactive; negative

row,Compound,outcome
1,CN(C)c1ccc(N=NS(=O)(=O)O)cc1,active; positive
2,COc1cc(OC)c(OC)cc1C=O,inactive; negative
3,CCOCCOCC,active; positive
4,O=c1[nH][nH]c(=O)c2cc([N+](=O)[O-])ccc12,active; positive
5,CC(C)(C)OOC(C)(C)CCC(C)(C)OOC(C)(C)C,inactive; negative
6,Oc1ccc([C@H]2COc3cc(O)ccc3C2)cc1,inactive; negative
7,COS(C)(=O)=O,active; positive
8,FC(F)(F)c1ccccc1,inactive; negative
9,CN(C)C(=S)SSC(=S)N(C)C,active; positive
10,O=C(O)/C=C\C(=O)O,inactive; negative
11,ClCCOCOCCCl,active; positive
12,O=NN1CCCCC1,active; positive
13,O=C1CCCO1,inactive; negative
14,ClC1=C(Cl)[C@]2(Cl)[C@@H]3[C@@H]4C[C@@H]([C@H]5O[C@@H]45)[C@@H]3[C@@]1(Cl)C2(Cl)Cl,inactive; negative
15,c1ccc2scnc2c1,inactive; negative
16,S=C1NCCN1,active; weakly positive
17,CC(C)(c1ccc(O)cc1)c1ccc(O)cc1,inactive; negative
18,C1COCCO1,inactive; negative
19,CCCCCC(=O)OCC,inactive; negative
20,O=C(O)c1c(Cl)cccc1Cl,inactive; negative
21,O=c1ccc2ccccc2o1,active; positive
22,CCCCn1cc[n+](C)c1,inactive; negative
23,O=[N+]([O-])c1ccc(Nc2ccc(O)cc2)c([N+](=O)[O-])c1,active; positive
